Results published in patent US20130039956A1, “USE OF NITROCARBOXYLIC ACIDS FOR THE TREATMENT, DIAGNOSIS AND PROPHYLAXIS OF AGGRESSIVE HEALING PATTERNS” (priority 2010, published 2013).

Legend:
Cardiomyocytes = test: TGF-β1-inducible formation of extracellular matrix in cardiomyocytes under shear stress; format: cell-based; conditions: 10-100 μmol, shear stress up to 100 dyn/cm^2; compared with native FA
Method: Characterizing features of the fibrous remodelling in the heart are accentuated expression and deposition of extracellular matrix proteins (ECM). This has been attributed to increased mechanical forces via autocrine release of transforming growth factor-beta (TGF-beta). […] An established cell culture model was used to investigate the effect of shear stress on cardiomyocytes. Cardiomyocytes were cultured and transferred to a matrigel substrate. Plates with confluenced cells were placed into a shear force injury device (SFID). The SFID design is based on a cone-and-plate construction which is a well-defined rheological model in which a homogenously distributed laminar flow over the surface of the cells is generated by a rotating cone. The conical surface is positioned above a stationary flat plate and the fluid medium between these two surfaces is set in motion by rotating the cone to create a uniform level of fluid shear stress throughout the entire surface of the cells cultured on the coverslips.
A peak shear stress of 100 dyn/cm^2 could be applied without significant cell detachment enabling a maximum injury severity of 46%. Cells were exposed to FCS 1% without or with nitro-fatty acid, and the corresponding native fatty acid in a dosage range between 10 μmol and 100 μmol, 10 seconds before shear force application. Shear force peaks up to 100 dyn/cm^2 with a duration of 30 msec each with a repetition frequency of 60/minute were applied for 5, 10, 30 and 60 minutes. Thereafter the cell plates were washed and placed in FCS 1% for 24 hrs. The supernatant of the shear force investigation as well as that of the following culture phase was analysed. It could be shown that TGF-beta and ECM proteins (collagen I, fibronectin, laminin, elastin) increased after treatment in the control groups.

TRPV-1 = molecular target: T1, TRPV-1 (Mus musculus, UniProt Q704Y3); test: Signal transduction of receptors of the TRP-protein family in retinal slices; format: cell-based, mice; conditions: 10 and 50 μmol, capsaicin 10 μmol or acid pH; compared with native FA
T1 construct: Whole retinas were isolated and cut into 100 μm slices using a tissue slicer; from tissue; host or cells: mouse retinal slices (100 μm)
Method: In order to determine the effect of nitrated fatty acids on receptor signal transduction, an in vitro model was used. Retinal slices from cadaver mice were prepared as described by Snellman and Nawy (Snellman J. Nawy S (2004). cGMP-dependent kinase regulates response sensitivity of the mouse on bipolar cell. J Neurosci 24:6621-6628). Whole retinas were isolated and cut into 100 μm slices using a tissue slicer and than transferred to the recording chamber. The chamber was continuously perfused with Ames media and oxygenated. Picrotoxin (100 μM), strychnine (10 μM), and TPMPA (50 μM) were added. Each nitro fatty acid was added in two experiments to achieve a final concentration of 10 μmol, and in another two experiments to achieve a final concentration of 50 μmol. In two experiments, the corresponding native fatty acid was added to achieve a final concentration of 10 and 50 μmol, and in two experiments saline solution was added which served as controls. Currents were measured via tissue electrodes and monitored throughout the investigation. After incubating the solution for 2 hours, the TRPV-1 agonist capsaicin was added to achieve a final concentration of 10 μmol. Experiments were performed using either 10 mmol Hepes or 10 mmol Mes adjusting the pH of the solution to 6.4 or 4.4, respectively. Furthermore, experiments were performed without or with preincubation (5 minutes) of the TRPV-1 antagonist capsazepine. The solution temperature was held constant at 35° C.

[1] = test system: human corneal fibroblasts; test: Model for fibrosis induction (3D corneal stroma, TGF-β1); format: cell-based; conditions: TGF-β1 over 7 days; compared with native FA
Method: Cornea injury may ultimately lead to a scar by way of corneal fibrosis, which is characterized by the presence of myofibroblasts and improper deposition of extracellular matrix components (ECM). An established in vitro model to study the healing response to trauma of corneal stroma was used. The in vitro 3-dimensional (3D) model of a corneal stroma was produced by human corneal fibroblasts stimulated with stable vitamin C which mimics corneal development. TGF-β1 was added to the medium over 7 days. […] There were no morphological changes of the myofibroblasts when treated with nitro fatty acids.

[2] = test system: Tracheas of adult Wistar rats; test: Tissue damage due to barotrauma ex vivo (tracheal rings); format: cell-based; conditions: tracheal rings bathed 15 minutes, balloon 4 atm 4 hours; compared with native FA
Method: In order to determine the effects of nitrated fatty acids on mechanical trauma to tracheal cells, an ex vivo model was established. Tracheas of adult Wistar rats sacrificed with thiopental given intraabdominally were carefully resected (harvested). Whole (intact) tracheas were cultured in DMEM 10 (Sigma) supplemented with antibiotic/antimycotic drugs for 48 hours at 37° C. Tracheas were cut into five pieces of equal size. One piece was immediately analyzed, two were bathed in 0.9% saline, one was bathed in a solution containing native fatty acid in SDS (1%), and one was bathed in a solution containing nitro fatty acid, respectively, for 15 minutes each. The inner diameters of the tracheal rings were measured. A non-compliant balloon catheter for use in vascular interventions was chosen, so that the nominal balloon diameter was 15-20% larger than that of the trachea. One tracheal ring pretreated with 0.9% saline was left untreated; the other prepared tracheal rings were mounted on the balloon catheter, which was inflated to a pressure of 4 atm thereafter. Balloons were kept inflated for 4 hours, while being positioned in the culture medium. Thereafter, the tracheal rings were further cultivated in separate vials for 24 hours. In a separate set of investigations, sense/antisense ODNs for HO-1 (Invitrogen) directed against the translation initiation codon in the HO-1 cDNA was used to inhibit hemoxydase-1 synthesis. The cells were transfected using the Superfect transfection reagent (Qiagen) before traumatization. In another set of experiments, the HO inhibitor SnPP IX (Porphyrin Products, London, UK) was added to the culture medium 6 hours before traumatization at a dose of 10 micromol.
For analysis, the rings were cut into small strips using a no touch technique. Viability was tested using a MTT assay and apoptosis using a TUNEL assay. Anti-HO-1 antibodies (StressGen, Tebu, Le-Perray-en-Yvelines, France) were measured by Western blot and immunohistochemistry.
Also: key: 0: not superior to native FA (control); +: Superior to native FA; ++: superior to both; +++: outstanding effect.

T1 sequence (Q704Y3 whole entry): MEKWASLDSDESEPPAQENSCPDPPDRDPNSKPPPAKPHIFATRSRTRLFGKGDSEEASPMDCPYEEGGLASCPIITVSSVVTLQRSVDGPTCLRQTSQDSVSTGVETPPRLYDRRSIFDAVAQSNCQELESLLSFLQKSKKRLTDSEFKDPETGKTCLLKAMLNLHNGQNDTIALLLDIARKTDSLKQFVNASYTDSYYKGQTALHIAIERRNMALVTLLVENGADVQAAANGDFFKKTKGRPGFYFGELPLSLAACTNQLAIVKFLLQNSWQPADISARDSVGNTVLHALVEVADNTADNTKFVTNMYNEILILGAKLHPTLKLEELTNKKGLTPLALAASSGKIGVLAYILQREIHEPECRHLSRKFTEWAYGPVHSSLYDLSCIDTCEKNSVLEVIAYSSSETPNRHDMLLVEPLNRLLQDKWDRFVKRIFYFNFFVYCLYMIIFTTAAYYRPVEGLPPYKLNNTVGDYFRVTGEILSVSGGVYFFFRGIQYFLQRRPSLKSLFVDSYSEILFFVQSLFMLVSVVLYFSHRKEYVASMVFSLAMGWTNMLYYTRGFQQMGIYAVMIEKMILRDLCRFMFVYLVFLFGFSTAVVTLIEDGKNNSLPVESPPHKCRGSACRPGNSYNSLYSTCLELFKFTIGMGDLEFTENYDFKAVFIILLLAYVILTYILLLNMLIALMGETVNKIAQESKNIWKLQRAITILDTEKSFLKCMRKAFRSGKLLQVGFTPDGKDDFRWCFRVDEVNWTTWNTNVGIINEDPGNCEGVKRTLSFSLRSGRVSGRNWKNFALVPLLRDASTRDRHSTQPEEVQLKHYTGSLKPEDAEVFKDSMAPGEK

5-nitro-eicosatrienoic acid [compound 4]
Relative efficacy to suppress TGF-beta and ECM proteins in cardiomyocytes (Cardiomyocytes): +

9,10-nitro-cis-oleic acid [compound 10]
Relative effect on TRPV-1 signal transduction (current response) (TRPV-1): ++ | Relative efficacy in model for fibrosis induction [1]: ++ | Relative efficacy to suppress TGF-beta and ECM proteins in cardiomyocytes (Cardiomyocytes): ++ | Relative effect on tissue damage due to barotrauma [2]: ++

9,10-nitro-trans-oleic acid [compound 15]
Relative efficacy in model for fibrosis induction [1]: + | Relative efficacy to suppress TGF-beta and ECM proteins in cardiomyocytes (Cardiomyocytes): + | Relative effect on tissue damage due to barotrauma [2]: +

CCCCCCCC/C=C(/CCCCCCCC(=O)O)[N+](=O)[O-] [compound 1, 9-nitro cis-oleic acid]
Relative effect on TRPV-1 signal transduction (current response) (TRPV-1): ++ | Relative efficacy in model for fibrosis induction [1]: ++ | Relative efficacy to suppress TGF-beta and ECM proteins in cardiomyocytes (Cardiomyocytes): ++ | Relative effect on tissue damage due to barotrauma [2]: ++

CCCCC/C=C\C/C(=C\CCCCCCCC(=O)O)[N+](=O)[O-] [compound 2, 10-nitro-cis-linoleic acid]
Relative effect on TRPV-1 signal transduction (current response) (TRPV-1): ++ | Relative efficacy in model for fibrosis induction [1]: ++ | Relative efficacy to suppress TGF-beta and ECM proteins in cardiomyocytes (Cardiomyocytes): ++ | Relative effect on tissue damage due to barotrauma [2]: +

CCCCCCCC/C(=C/CCCCCCCC(=O)O)[N+](=O)[O-] [compound 3, 10-nitro-cis-oleic acid]
Relative effect on TRPV-1 signal transduction (current response) (TRPV-1): ++ | Relative efficacy in model for fibrosis induction [1]: + | Relative efficacy to suppress TGF-beta and ECM proteins in cardiomyocytes (Cardiomyocytes): ++ | Relative effect on tissue damage due to barotrauma [2]: +

CCCCC/C=C(/C/C=C\C/C=C\C/C=C\C/C=C\CCC(=O)O)[N+](=O)[O-] [compound 5, 16-nitro-all-cis-4,7,10,13,16-docosapentaenoic acid]
Relative efficacy to suppress TGF-beta and ECM proteins in cardiomyocytes (Cardiomyocytes): +

CC/C=C\C/C=C\C/C=C(/CCCCCCCC(=O)O)[N+](=O)[O-] [compound 6, 9-nitro-all-cis-9-12,15-octadecatrienoic acid]
Relative effect on TRPV-1 signal transduction (current response) (TRPV-1): + | Relative efficacy in model for fibrosis induction [1]: ++ | Relative efficacy to suppress TGF-beta and ECM proteins in cardiomyocytes (Cardiomyocytes): +++ | Relative effect on tissue damage due to barotrauma [2]: +

CC/C=C\C/C=C\C/C(=C/C/C=C\C/C=C\CCCCCC(=O)O)[N+](=O)[O-] [compound 7, 14-nitro-all-cis-7,10,13,16,19-docosapentaenoic acid]
Relative efficacy to suppress TGF-beta and ECM proteins in cardiomyocytes (Cardiomyocytes): +

CCCCCCCC/C=C(/CCCCCCCCCCCCCC(=O)O)[N+](=O)[O-] [compound 8, 15-nitro-cis-15-tetracosenoic acid]
Relative efficacy in model for fibrosis induction [1]: + | Relative efficacy to suppress TGF-beta and ECM proteins in cardiomyocytes (Cardiomyocytes): + | Relative effect on tissue damage due to barotrauma [2]: +

CCCCCCCC/C=C(\CCCCCCCC(=O)O)[N+](=O)[O-] [compound 9, 9-nitro-trans-oleic acid]
Relative efficacy to suppress TGF-beta and ECM proteins in cardiomyocytes (Cardiomyocytes): +

CCCCC=C(C=CC=CCCCCCCCC(=O)O)[N+](=O)[O-] [compound 11, 13-nitro-octadeca-9,11,13-trienoic acid]
Relative efficacy in model for fibrosis induction [1]: + | Relative efficacy to suppress TGF-beta and ECM proteins in cardiomyocytes (Cardiomyocytes): + | Relative effect on tissue damage due to barotrauma [2]: +

CCCCCC=CCC=C(CC=CCC=CCCCC(=O)O)[N+](=O)[O-] [compound 14, 11-nitro-5,8,11,14-eicosatrienoic acid]
Relative efficacy in model for fibrosis induction [1]: + | Relative efficacy to suppress TGF-beta and ECM proteins in cardiomyocytes (Cardiomyocytes): + | Relative effect on tissue damage due to barotrauma [2]: +

CCCCCCCCCCC/C=C(/CCCCC(=O)O)[N+](=O)[O-] [compound 21, 6-nitro-cis-6-octadecenoic acid]
Relative efficacy to suppress TGF-beta and ECM proteins in cardiomyocytes (Cardiomyocytes): ++

CCCCCC=CCC=C(CC=CC/C=C\CCCC(=O)O)[N+](=O)[O-] [compound 22, 11-nitro-cis-5,8,11,14-eicosatetraenoic acid]
Relative effect on TRPV-1 signal transduction (current response) (TRPV-1): + | Relative efficacy in model for fibrosis induction [1]: ++ | Relative efficacy to suppress TGF-beta and ECM proteins in cardiomyocytes (Cardiomyocytes): ++ | Relative effect on tissue damage due to barotrauma [2]: +
